Results on two compounds are retold here after US5593970A, “Heterocyclic anthracycline analogs” (priority 1994, dated 1997).

Entries after “also recorded” stand apart in the source; their conditions may differ.

In general, GI50 refers to the concentration at which growth is held to half of that of the control.

Data set [1] deals with Colon. Nature of the data set: NCI assay, average per cancer type.
Data set [2] concerns SNB-75. Nature of the data set: NCI sulforhodamine B assay. In kind it is cell-based, human. The method, then: (§1) These assays were carried out at the Developmental Therapeutics Program, Division of Cancer Treatment, National Cancer Institute (Bethesda, Md., U.S.A.). The method consists of incubating varying concentrations of the drug with an inoculum of cells for two days. […] The 57 cell lines included two mouse leukemia lines (P388 parental and adriamycin resistant) and […] human cell lines.
(§2) It should be noted that the first two parameters (GI50 and TGI) relate to antiproliferation effects while the third one (LC50) indicates true cytotoxicity. A value of -4 or greater is considered to denote resistance (inactivity).

For data set [3], the system named is HOP-92. Nature of the data set: NCI sulforhodamine B assay. In kind it is cell-based, human. The method, then:
as §1, §2
A general note: In SRB staining, fixed cells bind dye roughly in proportion to their protein.

Data set [4] deals with CCRF-CEM. Nature of the data set: NCI sulforhodamine B assay. In kind it is cell-based. The note with it: Homo sapiens, 48 h, read-out: Log10 LC50 (converted).
Description: The method consists of incubating varying concentrations of the drug with an inoculum of cells for two days. […] The 57 cell lines included two mouse leukemia lines (P388 parental and adriamycin resistant) and 56 human cell lines.
Data set [5] has as its system tumor cell lines. Nature of the data set: Tumor clonogenic assay, overall. In kind it is cell-based. An excerpt:
For the IN VITRO test, we chose a tumor clonogenic assay which measures the ability of tumoral cells to form colonies (multicellular growth units) as a result of cell division in semisolid agar support (2,3). A more elaborate version of this fundamental assay, the soft agar colony formation disk diffusion assay was used. This assay defines the relative activity of one particular drug versus a tumoral cell line type. The effect of the test drug against tumoral cells could be measured by its inhibitory capacity against colony formation after the delivery of the compound, in different concentrations on an filter disk(4).
A modified technique of this assay was used in order to investigate the antiproliferative activity of candidate compounds. Tumoral cells from solid tumors and ascitic lines were plated separately in a two layer agar matrix. Cell lines to be tested were suspended in an upper layer of 0.4% Noble agar (Difco#00142-01) in RPMI-1066 (Gibco#3201875) at a yield varying between 10^4 to 2×10^5 cells per 60 mm Petri dish. Plating efficiency was determined for each line in order to achieve an optimal number of colonies per dish. Plates were examined before drug administration to confirm a uniform dispersion of single cells. The bottom layer consisted of 0.8% Noble agar, 0.8% Tryptic Soy Broth (difco#0037001)in CMRL-1066/Fischer's. The bottom layers were used within 2 and 9 days of preparation. Plated dishes (bottom layer of agar, upper layer of cells and administered drug were incubated in humidified atmosphere at 37° C., 5% CO2 for 10-20 days depending upon the time necessary to observe adequate colonies (defined as a cell aggregate of more than 50 cells) both control and drug inhibited. Drugs were administered on a paper filter disk (Whatman No. 1) of 6.5 mm diameter placed on the upper layer at 1/3 distance from the edge of the dish. The anti-clonogenic activity of the compounds was measured as the zone of inhibition from the disk edge to the most proximal colonies. This zone of inhibition was checked on an inverted microscope (40×) and was measured with a micrometer mounted in the eyepiece. The ocular micrometer was calibrated with a stage micrometer set for a particular combination of ocular and objective lenses.
200 units of activity are equivalent to 6.5 mm distance from the disk edge to the first colonies (5). […] We made a modification of the initial technique by not plating a solid tumor and a leukemia simultaneously in the same Petri dish. Anti-clonogenic tests performed on leukemia cell line have helped in the discovery of the majority of current clinically used cytostatic drugs. Our tests on solid tumor lines (animal or human) may help define active compounds with solid tumor specificity. This specific activity would be indicated by a higher level of cloning inhibition in solid tumors versus leukemias (6).

Data set [6] has as its system BE-1. Nature of the data set: Soft agar colony formation disk diffusion assay. In kind it is cell-based, human. Summed up: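 Cells were suspended at 10^4 to 2×10^5 per dish in 0.4% Noble agar in RPMI-1066 over a 0.8% agar/Tryptic Soy Broth bottom layer. Compound in DMSO/water was dried onto a 6.5 mm paper disk placed on the upper layer. Read-out was the zone of inhibition from disk edge to nearest colonies (>50 cells), measured by ocular micrometer.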

The subject of data set [7] is NSC Lung. The note with it: nsc lung cancer cell lines, 48 h.

Regarding `COC(=O)C1CC2=C(C(=O)c3c(cc4ccccc4c3O)C2=O)C(O[C@H]2C[C@H](NC(=O)C(F)(F)F)[C@H](O)[C@H](C)O2)O1` (mixture of isomers) [BCH-242, (1'S,1R,3S) and (1'S, 1S,3R)-Methyl[11-hydroxy-1-2',3',6'-trideoxy-3-trifluroacetamido-L-lyxohexopyranose)-5,12-dioxo-3,4,5,12-tetrahydroanthraceno[2,3-c]pyran-3-yl]formate], the CC50 is 2.57 µM in data set [1] (Homo sapiens, 48 h, read-out: Average LOG10 LC50); 30.2 µM in data set [2] (Homo sapiens, SNB-75, 48 h, read-out: Log10 LC50, SNB-75 (converted)); 6.76 µM in data set [3] (Homo sapiens, HOP-92, 48 h, read-out: Log10 LC50, HOP-92 (converted)); above 100 µM in data set [4]. The GI50 is 0.316 µM in data set [1] (Homo sapiens, read-out: Average LOG10 GI50) and 2.95 µM in data set [2] (Homo sapiens, SNB-75, SNB-75, read-out: Log10 GI50 (converted)). For the same compound, the IC100 in data set [2] (Homo sapiens, SNB-75, 48 h, SNB-75, read-out: Log10 TGI (converted)) is 8.71 µM. Besides, the “Log10 GI50” value in data set [2] (SNB-75) is -5.63 log molar. In data set [2] (SNB-75), the “Log10 TGI” value was -5.25 log molar. Moreover, the “Log10 LC50” value in data set [2] (SNB-75, 2880 min) is -4.73 log molar; in data set [3] (HOP-92, 2880 min), -5.36 log molar.
Turning to “Methyl(11-hydroxy-5,12-dioxo-3,4,5,12-tetrahydroanthraceno[2,3-c]pyran-3-yl)ketone and Methyl(5-hydroxy-5,12-dioxo-3,4,5,12-tetrahydroanthraceno[2,3-c]pyran-3-yl)ketone [BCH-687]”, in data set [1] (Colon), the “Average LOG10 GI50” value is -4.95 ± 0.28 log molar. For the same compound, in data set [5], the “activity and specificity in words” value was “most active; also recorded: responded well”. For the same compound, the zone of inhibition in data set [6] (10 μg/DISK) worked out at 85.0 ± 44.2 Zone Units; in data set [6] (100 μg/DISK), 162.6 ± 70.4 Zone Units. In addition, the “Average LOG10 LC50” value in data set [7] is > -4.23(± 0.07) log molar.
